The values that follow come from PubChem BioAssay (NCI).

Assay in all cases: NCI-60 cell line screen, 48 h
In test [1] the test system is 786-0 renal.
Test [2] concerns A498 renal.
In test [3] the test system is CAKI-1 renal.
For test [4], the system named is HT29 colon.
For test [5], the system named is IGROV1 ovarian.
For test [6], the system named is M14 melanoma.
Test [7] concerns MDA-MB-435.
Test [8] relates to NCI-H460 lung.
The subject of test [9] is OVCAR-8 ovarian.
Test [10] concerns SF-539 CNS.
Test [11] has as its system SNB-75 CNS.
Test [12] has as its system SW-620 colon.
The subject of test [13] is TK-10 renal.
The test system of test [14] is RPMI-8226 leukemia.

SMILES strings stand for the structures.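 Grown in 96-well plates, cells were treated for 48 hours with each compound at five concentrations. Insufficient inhibition: endpoint recorded as highest concentration tested. Definition used: TGI = concentration required for complete inhibition of growth.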

With `CSCCCNC(=O)c1csc(-c2csc(CCNC(=O)CNC(=O)OC(C)(C)C)n2)n1`, the TGI in test [1], in [2], in test [3], in [4], in test [5] and in [6] was greater than 100 µM each time. In addition, the TGI in test [7], in test [8], in [9], in [10], in [11] and in test [12] was greater than 100 µM each time. Besides, in test [13], the TGI was greater than 100 µM.
`COP(=O)(OC)[C@@](O)(c1ccccc1)[C@@H](O)[C@@H](O)c1ccccc1`: the TGI in [1], in test [2], in [3], in test [4], in test [5] and in [6] was greater than 100 µM each time. Besides, the TGI in [7], in [8], in test [9], in test [10], in test [11] and in test [12] was greater than 100 µM each time. Besides, the TGI in test [13] is greater than 100 µM.
With `CCc1cccc(CC)c1Nc1nc(-c2ccccc2-c2ccccc2)cs1`, the TGI in test [1], in [2], in test [3], in test [5], in test [6] and in test [7] was greater than 100 µM in each case. In addition, the TGI in test [8], in test [14], in test [10], in [11], in [12] and in [13] was greater than 100 µM throughout.
As for `CC(C)(C)c1cc(C(C)(C)C)c(SSc2c(C(C)(C)C)cc(C(C)(C)C)c(O)c2O)c(O)c1O`, the TGI in test [1] worked out at 19.2 µM; in test [2] it was 27.5 µM; in test [3] it was 23.7 µM; in test [4] it was 31.5 µM; in test [5], 26.3 µM; in test [6], 25.2 µM. Also, the TGI in test [7] is 17.2 µM; in [8] it was 13.2 µM; in test [9], 47.7 µM; in [14] it was 32.1 µM; in test [11], 41.9 µM; in test [12], 24 µM.
Regarding `CCC(=O)NC(NNS(=O)(=O)c1ccc(C)cc1)(C(F)(F)F)C(F)(F)F`, the TGI is greater than 100 µM in [1]; greater than 100 µM in [2]; greater than 100 µM in [3]; greater than 100 µM in [5]; greater than 100 µM in test [6]; 48 µM in [7]. Moreover, the TGI in test [8], in test [9], in test [14], in test [10], in test [11] and in test [12] was greater than 100 µM each time. For the same compound, the TGI in test [13] is greater than 100 µM.
Take `O=C(Cn1c(C(=O)/C=C/c2ccc(Cl)c(Cl)c2)nc2ccccc21)c1ccccc1`: the TGI stood at 44 µM in test [1]; 67.4 µM in test [2]; 45.5 µM in test [4]; 79 µM in [5]; 72.2 µM in [6]; 42.4 µM in test [7]. In addition, the TGI in test [8] is 39.4 µM; in test [14], greater than 100 µM; in test [10], 48.2 µM; in test [12], greater than 100 µM; in [13] it was 76.6 µM.
Take `COc1ccc(-c2c(C#N)c(N)nc(Sc3ccccc3N)c2C#N)cc1`: the TGI in test [1] was 32.3 µM; in test [2], 19.6 µM; in [3], greater than 65.9 µM; in test [4] it was greater than 100 µM; in [5] it was greater than 56.8 µM; in test [6] it was greater than 100 µM. For the same compound, the TGI in test [7] was greater than 100 µM; in test [8] it was greater than 100 µM; in [9], 45.7 µM; in test [14] it was greater than 100 µM; in test [10], 56.9 µM; in test [12] it was greater than 100 µM. The TGI in test [13] worked out at 46 µM.
For the compound `O=C1CSc2ccnc(=O)n21`, the TGI in [1], in [2], in test [3], in [5], in test [6] and in test [7] was greater than 100 µM each time. Moreover, the TGI in [8], in test [9], in [14], in test [10], in test [11] and in test [12] was greater than 100 µM throughout. In test [13], this compound came in with a TGI greater than 100 µM.
As for `O=C(O)CNc1ncc2c(n1)-c1ccccc1OC2`, the TGI in [1], in test [3], in test [4], in [5], in [6] and in [7] was greater than 100 µM in each case. Further, the TGI in test [8], in test [9], in test [14], in [10], in test [11] and in [12] was greater than 100 µM in each case. The TGI in test [13] was greater than 100 µM.
For the compound `CC(=O)/C=C1/C(=O)C(CC(C)C)=C1CC(C)C`, the TGI in test [1], in [2], in test [3], in test [4], in test [5] and in test [6] was greater than 100 µM in each case. Moreover, the TGI in test [7], in [9], in test [10], in test [11], in [12] and in [13] was greater than 100 µM throughout.
For the compound `COc1cccc(-c2nc(N)c(C#N)c3c2CCS(=O)(=O)c2ccc(C)cc2-3)c1`, the TGI in test [1] was greater than 100 µM; in test [2] it was greater than 81.8 µM; in test [3] it was greater than 100 µM; in test [4] it was greater than 49.1 µM; in test [5], greater than 100 µM; in test [6], greater than 100 µM. For the same compound, the TGI in test [7] is greater than 100 µM; in test [8], greater than 100 µM; in test [9], greater than 100 µM; in test [10], greater than 100 µM; in [11] it was 54 µM; in test [12], greater than 100 µM. In test [13], this compound came in with a TGI greater than 100 µM.
As to `N#Cc1ccc(N=NN2CCCC2)cc1`, the TGI in test [1], in test [2], in test [3], in [5], in [6] and in test [7] was greater than 100 µM each time. In addition, the TGI in test [8], in [9], in test [14], in test [10], in test [11] and in [12] was greater than 100 µM throughout. The TGI in [13] was greater than 100 µM.
Consider `O=C(O)c1cc(-c2ccc3cc(O)c(O)cc3c2)ccc1O`, for which the TGI in [1], in test [2], in [3], in [4], in test [5] and in [6] was greater than 12.5 µM in each case. For the same compound, the TGI in test [7], in [8], in [9], in test [10], in test [11] and in test [12] was greater than 12.5 µM throughout. The compound also had a TGI in test [13] greater than 12.5 µM.
`O=[N+]([O-])/C(C(Cl)=C(Cl)Cl)=C(\NCc1ccccc1)Sc1ccccc1`: the TGI in [1] is greater than 100 µM; in test [2], 62.2 µM; in test [3], greater than 100 µM; in test [4] it was greater than 100 µM; in [6] it was greater than 100 µM; in [7], 41.3 µM. Moreover, the TGI in test [8] was greater than 100 µM; in test [9] it was 32.8 µM; in test [14], greater than 100 µM; in test [10], 38.9 µM; in [11] it was 63.3 µM; in [12], 42.6 µM.
On to `CCOC(=O)C1=C(C)N(Cc2ccccc2)C2(O)C=CC(=O)C3C(=O)N(c4ccccc4)C(=O)C132` (stereo not drawn), for which the TGI in test [1] is 3.27 µM; in test [2], 28.1 µM; in [3], 4.17 µM; in [4], 3.33 µM; in test [5], 4.32 µM; in [6], 3.92 µM. Moreover, the TGI is 3.86 µM in test [7]; 4.77 µM in test [8]; 3.32 µM in [9]; 3.1 µM in test [14]; 3.45 µM in test [10]; 9.33 µM in [13].
`Cc1cc(O)c(C(O)c2ccccn2)cc1O` (stereo not drawn): the TGI was 34.5 µM in test [1]; 24.2 µM in [3]; 44 µM in test [4]; greater than 100 µM in test [5]; 38.4 µM in [6]; 35.3 µM in test [7]. Moreover, the TGI was greater than 100 µM in test [8]; 40.8 µM in test [9]; 67.4 µM in [14]; greater than 100 µM in [10]; 31.9 µM in test [11]; 41.1 µM in [12]. In addition, the TGI in test [13] amounted to 31.8 µM.
As to `COc1ccc(C)cc1NC(=S)N/N=C/c1ccco1`, the TGI in test [1], in test [2], in test [3], in test [4], in [5] and in test [6] was greater than 100 µM in each case. Moreover, the TGI in test [7] was 92.2 µM; in [8], greater than 100 µM; in test [9] it was greater than 100 µM; in [14], 71.8 µM; in test [10] it was greater than 100 µM; in test [11], greater than 100 µM. In test [12], this compound registered a TGI greater than 100 µM.
As to `N#Cc1ccccc1NC(=O)C(O)C(O)C(O)C(O)C=O` (stereo not drawn), the TGI in [1], in test [2], in test [3], in [4], in test [5] and in [6] was greater than 100 µM each time. Moreover, the TGI in test [7], in test [8], in [9], in [10], in [11] and in [12] was greater than 100 µM in each case. This compound also returned a TGI in [13] greater than 100 µM.
Consider `CC1(C)C2CCC1(C)C(NC(=O)COCCOCC(N)=O)C2` (stereo not drawn), for which the TGI in [1], in [2], in test [3], in test [4], in test [5] and in test [6] was greater than 100 µM in each case. The TGI in test [7], in test [8], in test [9], in test [10], in test [11] and in [12] was greater than 100 µM throughout. The compound also came in with a TGI in test [13] greater than 100 µM.
Turning to `c1ccc2c(c1)n1c(N3CCCC3)[n+]3ccccc3c1c1c3cccc[n+]3c(N3CCCC3)n21`, the TGI in test [1], in test [2], in test [3], in test [5], in test [6] and in test [7] was greater than 100 µM each time. For the same compound, the TGI in test [8] was greater than 100 µM; in test [9], 93.3 µM; in test [14], greater than 100 µM; in test [10], greater than 100 µM; in test [11], 68.5 µM; in test [12] it was greater than 100 µM. Besides, in [13], the TGI is greater than 100 µM.
With `COc1cc2c(cc1OCCCN1CCOCC1)N=C[C@@H]1CCCN1C2=O`, the TGI in test [1] was greater than 100 µM; in [2], 30.1 µM; in [3], 26.3 µM; in test [4], 47.7 µM; in test [6] it was 29.1 µM; in [7], 31 µM. The TGI was greater than 100 µM in test [8]; 98.3 µM in test [9]; 5.83 µM in [14]; 22.3 µM in test [10]; 13.8 µM in test [12]; greater than 100 µM in test [13].
As for `NNC(=O)c1cc(Cl)ccc1NC(=O)C12CC3CC(CC(C3)C1)C2`, the TGI in test [1] is 79.9 µM; in test [3] it was greater than 100 µM; in [4], 48 µM; in [5], greater than 100 µM; in test [6] it was 31.8 µM; in test [7] it was greater than 100 µM. Moreover, the TGI in test [8] was greater than 100 µM; in test [9], greater than 100 µM; in [14] it was 69.7 µM; in test [10], greater than 100 µM; in [11], greater than 100 µM; in test [12], greater than 100 µM. This compound returned a TGI in [13] greater than 100 µM.
